Assay results published in ChEMBL document CHEMBL5696442, “Discovery of type II inhibitors of TGFβ-activated kinase 1 (TAK1) and mitogen-activated protein kinase kinase kinase kinase 2 (MAP4K2)” (J Med Chem, 2015).
Calls of active or inactive are those of the source. The rule behind the calls is not given here.

How the values were obtained:
[1] = target: Serine/threonine-protein kinase mTOR (Homo sapiens) (UniProt P42345); assay: Inhibition of FRAP ATP labeling site in human Huh-7 cell lysate at 1 uM by KiNativ Profiling analysis relative to control; format: subcellular
[2] = target: Serine/threonine-protein kinase WNK3 (Homo sapiens) (UniProt Q9BYP7); assay: Inhibition of Wnk3 Lys2 labeling site in human Huh-7 cell lysate at 1 uM by KiNativ Profiling analysis relative to control; format: subcellular
Chain of Serine/threonine-protein kinase WNK3 (Homo sapiens) (Q9BYP7 whole entry): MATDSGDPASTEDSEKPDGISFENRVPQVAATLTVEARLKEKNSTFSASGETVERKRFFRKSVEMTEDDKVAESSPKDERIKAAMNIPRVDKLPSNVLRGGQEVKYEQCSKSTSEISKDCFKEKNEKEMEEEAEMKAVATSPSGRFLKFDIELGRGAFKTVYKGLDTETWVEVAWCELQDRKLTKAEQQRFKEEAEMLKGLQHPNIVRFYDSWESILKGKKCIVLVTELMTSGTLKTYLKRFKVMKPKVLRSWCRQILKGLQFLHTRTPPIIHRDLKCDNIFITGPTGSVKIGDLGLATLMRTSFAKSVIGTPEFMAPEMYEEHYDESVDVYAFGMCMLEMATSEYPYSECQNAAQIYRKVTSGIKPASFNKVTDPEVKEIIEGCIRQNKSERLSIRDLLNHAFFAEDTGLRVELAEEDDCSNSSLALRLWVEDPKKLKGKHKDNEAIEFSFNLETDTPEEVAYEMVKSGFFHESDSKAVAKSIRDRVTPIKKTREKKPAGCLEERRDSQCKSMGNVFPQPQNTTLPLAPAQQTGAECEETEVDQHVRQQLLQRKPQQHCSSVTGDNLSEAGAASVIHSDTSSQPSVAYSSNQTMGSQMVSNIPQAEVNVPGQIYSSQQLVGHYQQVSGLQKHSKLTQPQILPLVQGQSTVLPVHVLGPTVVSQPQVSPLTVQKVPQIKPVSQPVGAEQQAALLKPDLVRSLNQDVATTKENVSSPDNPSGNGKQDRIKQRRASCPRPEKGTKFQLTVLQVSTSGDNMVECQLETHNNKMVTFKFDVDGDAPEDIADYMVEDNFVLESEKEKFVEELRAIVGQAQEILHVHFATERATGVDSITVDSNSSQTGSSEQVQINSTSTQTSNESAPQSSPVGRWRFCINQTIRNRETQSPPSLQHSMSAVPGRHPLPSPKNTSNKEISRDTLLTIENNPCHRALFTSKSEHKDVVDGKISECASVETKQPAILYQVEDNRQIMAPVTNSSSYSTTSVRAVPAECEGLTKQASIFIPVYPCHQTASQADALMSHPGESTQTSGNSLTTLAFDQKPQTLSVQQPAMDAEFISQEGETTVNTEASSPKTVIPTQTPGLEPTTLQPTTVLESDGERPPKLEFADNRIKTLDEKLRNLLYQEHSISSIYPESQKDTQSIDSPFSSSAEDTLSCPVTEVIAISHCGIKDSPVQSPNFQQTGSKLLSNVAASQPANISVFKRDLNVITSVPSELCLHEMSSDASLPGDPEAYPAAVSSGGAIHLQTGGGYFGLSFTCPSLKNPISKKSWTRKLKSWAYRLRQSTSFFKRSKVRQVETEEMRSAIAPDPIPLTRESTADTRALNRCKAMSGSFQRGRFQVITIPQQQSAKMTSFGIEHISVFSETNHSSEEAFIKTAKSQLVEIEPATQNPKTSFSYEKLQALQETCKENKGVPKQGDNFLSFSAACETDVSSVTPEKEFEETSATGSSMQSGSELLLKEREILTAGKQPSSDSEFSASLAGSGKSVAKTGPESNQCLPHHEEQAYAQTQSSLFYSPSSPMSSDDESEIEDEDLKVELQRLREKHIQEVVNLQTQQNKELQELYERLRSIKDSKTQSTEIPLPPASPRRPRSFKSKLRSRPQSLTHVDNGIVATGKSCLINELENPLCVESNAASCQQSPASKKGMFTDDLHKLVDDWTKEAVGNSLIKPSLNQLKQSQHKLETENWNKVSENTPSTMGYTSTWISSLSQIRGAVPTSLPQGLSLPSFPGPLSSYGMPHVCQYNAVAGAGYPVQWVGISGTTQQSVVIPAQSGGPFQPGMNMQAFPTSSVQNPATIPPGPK

[3] = target: Mitogen-activated protein kinase 7 (Homo sapiens) (UniProt Q13164); assay: Inhibition of Erk5 Lys2 labeling site in human Huh-7 cell lysate at 1 uM by KiNativ Profiling analysis relative to control; format: subcellular
[4] = target: T1, Phosphatidylinositol 5-phosphate 4-kinase type-2 gamma (Homo sapiens) (UniProt Q8TBX8); assay: Inhibition of PIP4K2C ATP labeling site harbouring VKELPTLKDMDFLNK in human Huh-7 cells at 1 uM by KiNativ Profiling analysis relative to control; format: cell-based
T1 sequence (whole entry): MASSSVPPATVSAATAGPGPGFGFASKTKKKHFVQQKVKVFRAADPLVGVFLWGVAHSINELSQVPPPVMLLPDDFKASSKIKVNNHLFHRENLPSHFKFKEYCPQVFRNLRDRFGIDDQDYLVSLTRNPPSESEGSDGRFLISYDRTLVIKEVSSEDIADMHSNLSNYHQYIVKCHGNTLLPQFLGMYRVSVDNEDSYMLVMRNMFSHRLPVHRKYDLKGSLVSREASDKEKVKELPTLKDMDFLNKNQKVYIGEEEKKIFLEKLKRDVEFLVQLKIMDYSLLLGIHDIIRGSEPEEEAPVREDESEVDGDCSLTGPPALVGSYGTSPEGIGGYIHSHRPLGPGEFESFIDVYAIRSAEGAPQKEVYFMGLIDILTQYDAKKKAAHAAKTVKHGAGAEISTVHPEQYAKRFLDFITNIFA

[5] = target: T2, Myotonin-protein kinase (Homo sapiens) (UniProt Q09013); assay: Inhibition of DMPK1 K2 labeling site in human Huh-7 cells at 1 uM by KiNativ Profiling analysis relative to control; format: cell-based
T2 sequence (whole entry): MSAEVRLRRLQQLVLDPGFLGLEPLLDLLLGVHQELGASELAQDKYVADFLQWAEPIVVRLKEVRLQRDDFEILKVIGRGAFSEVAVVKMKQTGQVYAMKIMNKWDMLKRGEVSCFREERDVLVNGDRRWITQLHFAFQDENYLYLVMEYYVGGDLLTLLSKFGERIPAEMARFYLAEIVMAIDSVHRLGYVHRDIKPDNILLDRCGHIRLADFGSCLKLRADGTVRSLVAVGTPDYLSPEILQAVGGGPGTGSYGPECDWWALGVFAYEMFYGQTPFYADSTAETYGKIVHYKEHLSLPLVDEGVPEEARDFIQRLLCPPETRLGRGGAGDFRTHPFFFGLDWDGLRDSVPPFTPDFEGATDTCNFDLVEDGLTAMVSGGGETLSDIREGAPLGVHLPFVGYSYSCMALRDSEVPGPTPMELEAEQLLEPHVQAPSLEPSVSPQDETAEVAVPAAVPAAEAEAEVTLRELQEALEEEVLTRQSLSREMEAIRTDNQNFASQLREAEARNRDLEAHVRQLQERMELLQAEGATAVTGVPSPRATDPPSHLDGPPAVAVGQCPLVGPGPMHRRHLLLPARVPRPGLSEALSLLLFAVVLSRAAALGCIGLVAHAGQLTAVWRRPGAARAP

[6] = target: Serine/threonine-protein kinase Nek7 (Homo sapiens) (UniProt Q8TDX7); assay: Inhibition of NEK7 ACT labeling site in human A-375 cells at 0.5 uM by KiNativ Profiling analysis relative to control; format: cell-based
[7] = target: Tyrosine-protein kinase Mer (Homo sapiens) (UniProt Q12866); assay: Inhibition of MERTK (unknown origin) at 10 uM by Ambit Kinomescan binding assay
Chain of Tyrosine-protein kinase Mer (Homo sapiens) (Q12866 whole entry): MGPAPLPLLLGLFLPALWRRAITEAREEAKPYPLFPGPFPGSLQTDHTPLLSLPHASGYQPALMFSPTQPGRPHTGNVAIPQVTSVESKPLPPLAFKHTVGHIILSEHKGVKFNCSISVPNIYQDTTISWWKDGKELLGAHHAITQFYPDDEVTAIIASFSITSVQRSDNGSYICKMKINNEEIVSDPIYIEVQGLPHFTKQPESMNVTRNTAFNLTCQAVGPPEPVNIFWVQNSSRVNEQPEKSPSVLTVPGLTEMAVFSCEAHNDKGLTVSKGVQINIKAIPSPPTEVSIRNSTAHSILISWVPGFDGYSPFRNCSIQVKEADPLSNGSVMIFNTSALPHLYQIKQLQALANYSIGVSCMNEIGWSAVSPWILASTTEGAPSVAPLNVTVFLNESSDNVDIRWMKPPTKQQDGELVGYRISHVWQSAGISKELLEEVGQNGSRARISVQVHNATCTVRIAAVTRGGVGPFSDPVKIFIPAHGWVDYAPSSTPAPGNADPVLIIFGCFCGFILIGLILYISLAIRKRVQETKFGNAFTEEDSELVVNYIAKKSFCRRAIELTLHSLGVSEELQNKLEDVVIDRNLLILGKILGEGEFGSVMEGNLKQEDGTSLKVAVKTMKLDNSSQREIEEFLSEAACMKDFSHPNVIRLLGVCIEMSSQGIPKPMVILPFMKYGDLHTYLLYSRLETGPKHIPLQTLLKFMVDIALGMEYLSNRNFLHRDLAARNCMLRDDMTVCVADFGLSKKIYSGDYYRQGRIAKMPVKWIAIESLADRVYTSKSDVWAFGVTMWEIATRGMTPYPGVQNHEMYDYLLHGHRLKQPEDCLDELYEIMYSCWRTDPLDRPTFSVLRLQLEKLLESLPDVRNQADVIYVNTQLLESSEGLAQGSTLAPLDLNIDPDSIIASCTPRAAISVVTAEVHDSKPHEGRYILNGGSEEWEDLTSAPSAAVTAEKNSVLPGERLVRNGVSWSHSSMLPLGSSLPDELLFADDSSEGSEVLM

[8] = target: Fibroblast growth factor receptor 4 (Homo sapiens) (UniProt P22455); assay: Inhibition of FGFR4 (unknown origin) at 10 uM by Ambit Kinomescan binding assay relative to control
[9] = target: Ribosomal protein S6 kinase alpha-3 (Homo sapiens) (UniProt P51812); assay: Inhibition of RSK2 Domain 2 K1 labeling site in human Huh-7 cells at 1 uM by KiNativ Profiling analysis relative to control; format: cell-based
Chain of Ribosomal protein S6 kinase alpha-3 (Homo sapiens) (P51812 whole entry, the tested form may be a part): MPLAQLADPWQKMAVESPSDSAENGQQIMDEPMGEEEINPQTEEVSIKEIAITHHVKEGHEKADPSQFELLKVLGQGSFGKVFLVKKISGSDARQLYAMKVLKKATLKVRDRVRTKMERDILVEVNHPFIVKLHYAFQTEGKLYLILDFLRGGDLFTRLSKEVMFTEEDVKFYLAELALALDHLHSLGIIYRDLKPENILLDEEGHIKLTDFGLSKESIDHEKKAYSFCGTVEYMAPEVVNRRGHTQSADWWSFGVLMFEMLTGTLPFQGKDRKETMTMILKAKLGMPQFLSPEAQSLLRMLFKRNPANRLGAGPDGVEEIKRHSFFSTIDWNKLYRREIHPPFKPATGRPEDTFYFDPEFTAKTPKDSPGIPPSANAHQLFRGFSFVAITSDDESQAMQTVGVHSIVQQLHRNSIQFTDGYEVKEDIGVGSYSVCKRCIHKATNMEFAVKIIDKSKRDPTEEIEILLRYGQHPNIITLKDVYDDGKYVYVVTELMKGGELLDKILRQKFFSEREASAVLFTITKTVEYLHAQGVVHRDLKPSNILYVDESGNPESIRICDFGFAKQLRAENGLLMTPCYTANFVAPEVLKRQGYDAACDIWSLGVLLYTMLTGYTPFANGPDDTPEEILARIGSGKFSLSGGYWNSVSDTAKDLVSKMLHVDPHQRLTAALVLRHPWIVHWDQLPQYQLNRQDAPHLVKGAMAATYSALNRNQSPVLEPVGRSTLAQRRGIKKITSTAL

[10] = target: Tyrosine-protein kinase CSK (Homo sapiens, UniProt P41240); assay: Inhibition of CSK ACT labeling site harbouring VSDFGLTKEASSTQDTGKLPVK in human A-375 cells at 5 uM by KiNativ Profiling analysis relative to control; format: cell-based
[11] = target: Interferon-induced, double-stranded RNA-activated protein kinase (Homo sapiens) (UniProt P19525); assay: Inhibition of PKR K2 labeling site in human Huh-7 cells at 1 uM by KiNativ Profiling analysis relative to control; format: cell-based
Chain of Interferon-induced, double-stranded RNA-activated protein kinase (Homo sapiens) (P19525 whole entry): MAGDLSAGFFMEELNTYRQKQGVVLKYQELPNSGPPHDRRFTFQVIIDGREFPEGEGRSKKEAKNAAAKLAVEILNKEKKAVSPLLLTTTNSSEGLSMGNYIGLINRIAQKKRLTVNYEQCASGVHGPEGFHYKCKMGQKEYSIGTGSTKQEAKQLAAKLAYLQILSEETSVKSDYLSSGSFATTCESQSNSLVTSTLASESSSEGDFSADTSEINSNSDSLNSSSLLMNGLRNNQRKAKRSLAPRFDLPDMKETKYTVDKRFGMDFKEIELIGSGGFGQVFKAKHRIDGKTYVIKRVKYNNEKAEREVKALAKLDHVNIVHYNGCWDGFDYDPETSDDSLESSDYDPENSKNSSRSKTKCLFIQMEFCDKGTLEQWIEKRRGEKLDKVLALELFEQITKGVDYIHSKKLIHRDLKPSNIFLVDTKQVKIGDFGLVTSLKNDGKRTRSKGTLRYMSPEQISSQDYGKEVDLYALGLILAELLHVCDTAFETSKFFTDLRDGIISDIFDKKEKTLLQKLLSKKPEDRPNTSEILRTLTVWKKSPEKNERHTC

[12] = target: Membrane-associated tyrosine- and threonine-specific cdc2-inhibitory kinase (Homo sapiens) (UniProt Q99640); assay: Inhibition of PKMYT1 (unknown origin) at 1 uM by Ambit Kinomescan binding assay relative to control
Chain of Membrane-associated tyrosine- and threonine-specific cdc2-inhibitory kinase (Homo sapiens) (Q99640 whole entry): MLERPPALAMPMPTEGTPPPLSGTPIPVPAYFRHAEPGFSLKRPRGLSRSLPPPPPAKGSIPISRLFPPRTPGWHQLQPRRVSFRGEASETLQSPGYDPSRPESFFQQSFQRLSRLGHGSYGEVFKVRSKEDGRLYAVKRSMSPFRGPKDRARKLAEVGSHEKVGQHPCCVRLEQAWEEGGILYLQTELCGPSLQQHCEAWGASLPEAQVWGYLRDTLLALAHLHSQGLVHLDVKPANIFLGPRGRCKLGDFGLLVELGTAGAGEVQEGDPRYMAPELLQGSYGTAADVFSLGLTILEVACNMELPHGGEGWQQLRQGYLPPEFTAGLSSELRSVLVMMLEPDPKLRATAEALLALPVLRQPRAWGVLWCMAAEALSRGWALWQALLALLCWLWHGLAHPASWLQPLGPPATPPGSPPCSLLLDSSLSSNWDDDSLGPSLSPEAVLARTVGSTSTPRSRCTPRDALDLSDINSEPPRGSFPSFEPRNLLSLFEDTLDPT

[13] = tested on: Tyrosine-protein kinase ABL1 (Homo sapiens), P00519 [Y253F]; assay: Inhibition of phosphorylated ABL1 Y253F mutant (unknown origin) at 1 uM by Ambit Kinomescan binding assay relative to control; values are per cent of control
[14] = target: Activin receptor type-1-like (Homo sapiens) (UniProt P37023); assay: Inhibition of ACVRL1 (unknown origin) at 1 uM by Ambit Kinomescan binding assay relative to control
[15] = target: Cyclin-dependent kinase 16 (Homo sapiens) (UniProt Q00536); assay: Inhibition of PCTK1 (unknown origin) at 1 uM by Ambit Kinomescan binding assay relative to control
Chain of Cyclin-dependent kinase 16 (Homo sapiens) (Q00536 whole entry): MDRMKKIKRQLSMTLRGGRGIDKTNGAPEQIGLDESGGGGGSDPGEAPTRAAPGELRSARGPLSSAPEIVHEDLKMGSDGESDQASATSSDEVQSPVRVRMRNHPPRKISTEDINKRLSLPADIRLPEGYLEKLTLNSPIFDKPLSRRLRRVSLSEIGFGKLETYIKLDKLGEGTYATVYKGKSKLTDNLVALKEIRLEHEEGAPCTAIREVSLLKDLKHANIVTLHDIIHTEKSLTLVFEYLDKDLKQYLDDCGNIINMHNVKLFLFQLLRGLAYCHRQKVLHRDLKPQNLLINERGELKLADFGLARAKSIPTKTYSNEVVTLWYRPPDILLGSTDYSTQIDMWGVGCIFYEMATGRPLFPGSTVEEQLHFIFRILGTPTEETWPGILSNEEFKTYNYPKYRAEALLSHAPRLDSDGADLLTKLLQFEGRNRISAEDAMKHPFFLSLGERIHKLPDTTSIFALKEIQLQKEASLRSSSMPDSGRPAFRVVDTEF

Compound: CNc1cc(Oc2cc(C(=O)Nc3cc(N4CCN(C)CC4)cc(C(F)(F)F)c3)ccc2C)ncn1
- inhibition [1]: -1.8%
- inhibition [2]: 2.7%
- inhibition [3]: -6.5%
- inhibition [4]: 5.4%

Compound: CCN1CCN(Cc2ccc(NC(=O)c3ccc(C)c(Oc4ccnc5[nH]ccc45)c3)cc2C(F)(F)F)CC1
- inhibition [5]: -7.6%
- inhibition [6]: 1.6%
- inhibition [7]: inactive
- inhibition [8]: 0.45%
- inhibition [9]: inactive
- inhibition [10]: 78.2%
- inhibition [11]: 4%

Compound: CCN1CCN(Cc2ccc(NC(=O)c3ccc(C)c(/C=C/c4cnc5[nH]ccc5c4OC)c3)cc2C(F)(F)F)CC1
- inhibition [12]: 68%
- percent of control [13]: 0.75%
- inhibition [14]: 100%
- inhibition [15]: 100%
